# Several values for one entry are separate records, joined by “and”; a condition that tells them apart may be missing. Equal values may be shown once.
# Molecular target: T1, farnesyl protein transferase (FPT), partially purified from rat brain (Rattus norvegicus, UniProt Q02293+Q04631)
# T1 construct: were partially purified from rat brain by ammonium sulfate fractionation followed by Q-Sepharose
# Test: Inhibition of farnesyl protein transferase (transfer of [3H]farnesyl to Ras-CVLS)
# Type: biochemical
# Details: FPT IC50, Ras-CVLS farnesylation, partially purified rat brain FPT
# Method in brief: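 Partially purified farnesyl protein transferase with His6-tagged val12-Ha-Ras-CVLS substrate and [3H]farnesyl pyrophosphate, 30 min at room temperature. Stopped with SDS/TCA, precipitated Ras collected on GF/C filters; percent inhibition relative to DMSO vehicle control.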
# T1 sequence (Q02293 whole entry, one chain of several): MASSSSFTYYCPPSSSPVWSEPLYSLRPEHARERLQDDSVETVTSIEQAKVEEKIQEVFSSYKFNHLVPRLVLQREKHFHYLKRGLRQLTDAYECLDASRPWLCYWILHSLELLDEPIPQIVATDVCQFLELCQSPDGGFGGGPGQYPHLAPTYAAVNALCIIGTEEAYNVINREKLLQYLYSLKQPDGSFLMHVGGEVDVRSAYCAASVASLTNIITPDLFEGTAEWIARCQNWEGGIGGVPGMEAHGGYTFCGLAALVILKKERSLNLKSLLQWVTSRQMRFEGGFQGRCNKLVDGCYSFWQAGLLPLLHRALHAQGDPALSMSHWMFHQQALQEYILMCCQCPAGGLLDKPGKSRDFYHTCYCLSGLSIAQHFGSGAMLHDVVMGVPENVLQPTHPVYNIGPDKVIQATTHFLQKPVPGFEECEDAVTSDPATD
row,Structure (SMILES),IC50 [µM]
1,O=C(Cc1ccc[n+]([O-])c1)N1CCN(C2c3ccc(Cl)cc3CCc3cccnc32)CC1 (stereo not drawn) [Example 197],1.17
2,O=C(Cc1ccccc1)N1CCN(C2c3ccc(Cl)cc3CCc3cccnc32)CC1 (stereo not drawn) [Example 80],2.73
3,O=C(Cc1cccnc1)N1CCN([C@@H]2c3ccc(Cl)cc3CCc3cccnc32)CC1 [223 (5.96)],2.1
4,O=C(Cc1cccnc1)N1CCN(C2c3ccc(Cl)cc3CCc3ccc[n+]([O-])c32)CC1 (stereo not drawn) [184 (5.60)],0.91
5,O=C(Cc1ccccn1)N1CCN(C2c3ccc(Cl)cc3CCc3cccnc32)CC1 (stereo not drawn) [Example 196],0.36

# Same assay, conditions: FPT IC50, enzyme inhibition
row,Structure (SMILES),IC50
1,O=C(Cc1cc[n+]([O-])cc1)N1CCN(C2c3ccc(Cl)cc3CCc3cc(Br)cnc32)CC1 (stereo not drawn) [Example 425-H],0.059 µM and 0.049 µM and 0.075 µM
2,Nc1cnc2c(c1)C=Cc1cc(Cl)ccc1C2C1CCN(C(=O)Cc2ccncc2)CC1 (stereo not drawn) [Example 402-A],0.45 µM and 0.56 µM

# Same assay, conditions: Ras-CVLS farnesylation, partially purified rat brain FPT; read-out: FPT IC50
row,Structure (SMILES),IC50
1,O=C(c1ccc([N+](=O)[O-])cc1)N1CCC(=C2c3ccc(Cl)cc3CCc3cccnc32)CC1 [Example 10],4.3 µM
2,O=C(Cc1ccccc1[N+](=O)[O-])N1CCC(=C2c3ccc(Cl)cc3CCc3cccnc32)CC1 [Example 126],2.9 µM
3,O=C(CCCc1ccccc1)N1CCC(=C2c3ccc(Cl)cc3CCc3cccnc32)CC1 [Example 11],4.3 µM
4,CC(C)(C)OC(=O)NCC(=O)N1CCN(C2c3ccc(Cl)cc3CCc3cccnc32)CC1 (stereo not drawn) [Example 208],4.8 µM
5,O=C(Cc1ccc(O)c(O)c1)N1CCC(C2c3ccc(Cl)cc3CCc3cccnc32)CC1 (stereo not drawn) [Example 321],6 µM
6,O=C(CSc1ncccn1)N1CCC(=C2c3ccc(Cl)cc3CCc3cccnc32)CC1 [Example 12],4.3 µM
7,Cc1cnc2c(c1)CCc1cc(Cl)ccc1C2=C1CCN(C(=O)Cc2ccncc2)CC1 [Example 301],0.04 µM and 0.075 µM
8,O=C(C1CCS(=O)(=O)CC1)N1CCC(=C2c3ccc(Cl)cc3CCc3cccnc32)CC1 [Example 95],4.2 µM
9,NS(=O)(=O)c1ccc(C(=O)N2CCC(=C3c4ccc(Cl)cc4CCc4cccnc43)CC2)cc1 [Example 90],3.4 µM
10,O=C(Cc1ccccc1)NCC(=O)N1CCN(C2c3ccc(Cl)cc3CCc3cccnc32)CC1 (stereo not drawn) [Example 209],7.92 µM
11,CC(=O)N1CCC(CC(=O)N2CCN([C@@H]3c4ccc(Cl)cc4CCc4cccnc43)CC2)CC1 [225 (5.98)],3.5 µM
12,CS(=O)(=O)Nc1ccc(C(=O)N2CCC(=C3c4ccc(Cl)cc4CCc4cccnc43)CC2)cc1 [Example 91],3.9 µM
13,CC(S)C(=O)NCC(=O)N1CCN(C2c3ccc(Cl)cc3CCc3cccnc32)CC1 (stereo not drawn) [Example 81],2.78 µM
14,O=C(Cc1ccncc1)N1CCC(=C2c3cc(F)ccc3CCc3cccnc32)CC1 [Example 310],3.6 µM
15,O=C(C1CCC(O)CC1)N1CCC(=C2c3ccc(Cl)cc3CCc3cccnc32)CC1 (stereo not drawn) [Example 97],4.4 µM

# System: T24-BAG4 human bladder carcinoma cells expressing an activated H-ras gene
# Test: Cell Mat Assay: tumor cell colony inhibition (tIC50)
# Type: cell-based
# Details: Homo sapiens, inhibition of tumor cell growth
# Experimental: (§1) Compound-induced colony inhibition was assayed by addition of serial dilutions of compound directly to the growth medium 24 h after tumor cell planting, and incubating cells for an additional 14 d to allow colony formation. Assays were terminated by rinsing monolayers twice with phosphate-buffered saline (PBS), fixing the monolayers with a 1% glutaraldehyde solution in PBS, then visualizing tumor cells by staining with X-Gal (Price, J., et al., Lineage analysis in the vertebrate nervous system by retrovirus-mediated gene transfer, Proc. Natl. Acad. Sci.84, 156-160(1987)). […] Both IC50 values were obtained by determining the density of tumor cells and mat cells by visual inspection and enumeration of cells per colony and the number of colonies under the microscope.
row,Structure (SMILES),IC50 [µM]
1,O=C(c1ccc([N+](=O)[O-])cc1)N1CCC(=C2c3ccc(Cl)cc3CCc3cccnc32)CC1 [Example 10],25
2,O=C(Cc1ccccc1[N+](=O)[O-])N1CCC(=C2c3ccc(Cl)cc3CCc3cccnc32)CC1 [Example 126],50
3,CC(C)(C)OC(=O)NCC(=O)N1CCN(C2c3ccc(Cl)cc3CCc3cccnc32)CC1 (stereo not drawn) [Example 208],> 50
4,O=C(Cc1ccc[n+]([O-])c1)N1CCN(C2c3ccc(Cl)cc3CCc3cccnc32)CC1 (stereo not drawn) [Example 197],25
5,O=C(Cc1ccc(O)c(O)c1)N1CCC(C2c3ccc(Cl)cc3CCc3cccnc32)CC1 (stereo not drawn) [Example 321],6.25
6,O=C(CSc1ncccn1)N1CCC(=C2c3ccc(Cl)cc3CCc3cccnc32)CC1 [Example 12],50
7,O=C(Cc1cc[n+]([O-])cc1)N1CCN(C2c3ccc(Cl)cc3CCc3cc(Br)cnc32)CC1 (stereo not drawn) [Example 425-H],< 1.6
8,O=C(C1CCS(=O)(=O)CC1)N1CCC(=C2c3ccc(Cl)cc3CCc3cccnc32)CC1 [Example 95],> 50
9,NS(=O)(=O)c1ccc(C(=O)N2CCC(=C3c4ccc(Cl)cc4CCc4cccnc43)CC2)cc1 [Example 90],50
10,O=C(Cc1ccccc1)NCC(=O)N1CCN(C2c3ccc(Cl)cc3CCc3cccnc32)CC1 (stereo not drawn) [Example 209],25
11,CC(=O)N1CCC(CC(=O)N2CCN([C@@H]3c4ccc(Cl)cc4CCc4cccnc43)CC2)CC1 [225 (5.98)],12.5
12,Nc1cnc2c(c1)C=Cc1cc(Cl)ccc1C2C1CCN(C(=O)Cc2ccncc2)CC1 (stereo not drawn) [Example 402-A],3.1
13,CS(=O)(=O)Nc1ccc(C(=O)N2CCC(=C3c4ccc(Cl)cc4CCc4cccnc43)CC2)cc1 [Example 91],50
14,CC(S)C(=O)NCC(=O)N1CCN(C2c3ccc(Cl)cc3CCc3cccnc32)CC1 (stereo not drawn) [Example 81],> 50
15,O=C(Cc1ccccc1)N1CCN(C2c3ccc(Cl)cc3CCc3cccnc32)CC1 (stereo not drawn) [Example 80],> 50
16,O=C(C1CCC(O)CC1)N1CCC(=C2c3ccc(Cl)cc3CCc3cccnc32)CC1 (stereo not drawn) [Example 97],> 50
17,O=C(Cc1cccnc1)N1CCN([C@@H]2c3ccc(Cl)cc3CCc3cccnc32)CC1 [223 (5.96)],25
18,O=C(Cc1cccnc1)N1CCN(C2c3ccc(Cl)cc3CCc3ccc[n+]([O-])c32)CC1 (stereo not drawn) [184 (5.60)],12.5
19,O=C(Cc1ccccn1)N1CCN(C2c3ccc(Cl)cc3CCc3cccnc32)CC1 (stereo not drawn) [Example 196],37

# Same assay, conditions: inhibition of tumor cell growth
row,Structure (SMILES),IC50 [µM]
1,O=C(CCCc1ccccc1)N1CCC(=C2c3ccc(Cl)cc3CCc3cccnc32)CC1 [Example 11],> 50
2,O=C(Cc1ccncc1)N1CCC(=C2c3cc(F)ccc3CCc3cccnc32)CC1 [Example 310],25

# Same assay, conditions: inhibition of tumor cell growth; listed as 196 (5.69)
row,Structure (SMILES),IC50 [µM]
1,O=C(Cc1ccccn1)N1CCN(C2c3ccc(Cl)cc3CCc3cccnc32)CC1 (stereo not drawn) [Example 196],25

# System: Normal human HEPM fibroblasts
# Test: Cell Mat Assay: density of mat cells (mIC50)
# Type: cell-based
# Details: not given
# Experimental: as §1
row,Structure (SMILES),IC50 [µM]
1,O=C(CCCc1ccccc1)N1CCC(=C2c3ccc(Cl)cc3CCc3cccnc32)CC1 [Example 11],> 50
2,O=C(Cc1ccncc1)N1CCC(=C2c3cc(F)ccc3CCc3cccnc32)CC1 [Example 310],> 50

# Same assay, conditions: Homo sapiens, Fibroblast
row,Structure (SMILES),IC50 [µM]
1,O=C(c1ccc([N+](=O)[O-])cc1)N1CCC(=C2c3ccc(Cl)cc3CCc3cccnc32)CC1 [Example 10],> 50
2,O=C(Cc1ccccc1[N+](=O)[O-])N1CCC(=C2c3ccc(Cl)cc3CCc3cccnc32)CC1 [Example 126],> 50
3,CC(C)(C)OC(=O)NCC(=O)N1CCN(C2c3ccc(Cl)cc3CCc3cccnc32)CC1 (stereo not drawn) [Example 208],> 50
4,O=C(Cc1ccc[n+]([O-])c1)N1CCN(C2c3ccc(Cl)cc3CCc3cccnc32)CC1 (stereo not drawn) [Example 197],> 50
5,O=C(Cc1ccc(O)c(O)c1)N1CCC(C2c3ccc(Cl)cc3CCc3cccnc32)CC1 (stereo not drawn) [Example 321],> 50
6,O=C(CSc1ncccn1)N1CCC(=C2c3ccc(Cl)cc3CCc3cccnc32)CC1 [Example 12],> 50
7,O=C(Cc1cc[n+]([O-])cc1)N1CCN(C2c3ccc(Cl)cc3CCc3cc(Br)cnc32)CC1 (stereo not drawn) [Example 425-H],> 25
8,Cc1cnc2c(c1)CCc1cc(Cl)ccc1C2=C1CCN(C(=O)Cc2ccncc2)CC1 [Example 301],> 50
9,O=C(C1CCS(=O)(=O)CC1)N1CCC(=C2c3ccc(Cl)cc3CCc3cccnc32)CC1 [Example 95],> 50
10,NS(=O)(=O)c1ccc(C(=O)N2CCC(=C3c4ccc(Cl)cc4CCc4cccnc43)CC2)cc1 [Example 90],> 50
11,O=C(Cc1ccccc1)NCC(=O)N1CCN(C2c3ccc(Cl)cc3CCc3cccnc32)CC1 (stereo not drawn) [Example 209],> 50
12,CC(=O)N1CCC(CC(=O)N2CCN([C@@H]3c4ccc(Cl)cc4CCc4cccnc43)CC2)CC1 [225 (5.98)],50
13,Nc1cnc2c(c1)C=Cc1cc(Cl)ccc1C2C1CCN(C(=O)Cc2ccncc2)CC1 (stereo not drawn) [Example 402-A],> 25
14,CS(=O)(=O)Nc1ccc(C(=O)N2CCC(=C3c4ccc(Cl)cc4CCc4cccnc43)CC2)cc1 [Example 91],80
15,CC(S)C(=O)NCC(=O)N1CCN(C2c3ccc(Cl)cc3CCc3cccnc32)CC1 (stereo not drawn) [Example 81],> 50
16,O=C(Cc1ccccc1)N1CCN(C2c3ccc(Cl)cc3CCc3cccnc32)CC1 (stereo not drawn) [Example 80],> 50
17,O=C(C1CCC(O)CC1)N1CCC(=C2c3ccc(Cl)cc3CCc3cccnc32)CC1 (stereo not drawn) [Example 97],> 50
18,O=C(Cc1cccnc1)N1CCN([C@@H]2c3ccc(Cl)cc3CCc3cccnc32)CC1 [223 (5.96)],> 50
19,O=C(Cc1cccnc1)N1CCN(C2c3ccc(Cl)cc3CCc3ccc[n+]([O-])c32)CC1 (stereo not drawn) [184 (5.60)],> 50
20,O=C(Cc1ccccn1)N1CCN(C2c3ccc(Cl)cc3CCc3cccnc32)CC1 (stereo not drawn) [Example 196],> 50
